Among the data in patent US9439422B2, “Use of macrocyclic picolinamides as fungicides” (DOW AGROSCIENCES LLC, priority 2013, dated 2016) are pest or weed control values, retold here.

The subject of test [1] is Mycosphaerella graminicola; Anamorph: Septoria tritici. Description: Leaf Blotch of Wheat (SEPTTR) disease control on wheat seedlings. It is filed as in vivo. The settings on record: Zymoseptoria tritici; for pest or weed control at 100 ppm: rate 100 ppm; for pest or weed control at 121.5 g/ha: rate 121.5 g/H. The procedure:
Evaluation of Fungicidal Activity: Leaf Blotch of Wheat (Mycosphaerella graminicola; Anamorph: Septoria tritici; Bayer Code […]) Technical grades of materials were dissolved in acetone, which were then mixed with nine volumes of water containing 110 ppm Triton X-100. The fungicide solutions were applied onto wheat seedlings using an automated booth sprayer to run-off. All sprayed plants were allowed to air dry prior to further handling. All fungicides were evaluated using the aforementioned method for their activity vs. all target diseases. Wheat leaf blotch and brown rust activity were also evaluated using track spray applications, in which case the fungicides were formulated as EC formulations, containing 0.1% Trycol 5941 in the spray solutions. Wheat plants (variety Yuma) were grown from seed in a greenhouse in 50% mineral soil/50% soil-less Metro mix until the first leaf was fully emerged, with 7-10 seedlings per pot. These plants were inoculated with an aqueous spore suspension of Septoria tritici either prior to or after fungicide treatments. After inoculation the plants were kept in 100% relative humidity (one day in a dark dew chamber followed by two to three days in a lighted dew chamber at 20° C.) to permit spores to germinate and infect the leaf. The plants were then transferred to a greenhouse set at 20° C. for disease to develop. When disease symptoms were fully expressed on the 1st leaves of untreated plants, infection levels were assessed on a scale of 0 to 100 percent disease severity. Percent disease control was calculated using the ratio of disease severity on treated plants relative to untreated plants.

In test [2] the test system is Puccinia triticina; Synonym: Puccinia recondite f. sp. tritici. Description: Wheat Brown Rust (PUCCRT) disease control on wheat seedlings. It counts as in vivo. The settings on record: for pest or weed control at 100 ppm: rate 100 ppm; for pest or weed control at 121.5 g/ha: rate 121.5 g/H. The procedure: Technical grades of materials were dissolved in acetone, which were then mixed with nine volumes of water containing 110 ppm Triton X-100. The fungicide solutions were applied onto wheat seedlings using an automated booth sprayer to run-off. All sprayed plants were allowed to air dry prior to further handling. All fungicides were evaluated using the aforementioned method for their activity vs. all target diseases. Wheat leaf blotch and brown rust activity were also evaluated using track spray applications, in which case the fungicides were formulated as EC formulations, containing 0.1% Trycol 5941 in the spray solutions. Wheat plants (variety Yuma) were grown from seed in a greenhouse in 50% mineral soil/50% soil-less Metro mix until the first leaf was fully emerged, with 7-10 seedlings per pot. These plants were inoculated with an aqueous spore suspension of Septoria tritici either prior to or after fungicide treatments. After inoculation the plants were kept in 100% relative humidity (one day in a dark dew chamber followed by two to three days in a lighted dew chamber at 20° C.) to permit spores to germinate and infect the leaf. The plants were then transferred to a greenhouse set at 20° C. for disease to develop. When disease symptoms were fully expressed on the 1st leaves of untreated plants, infection levels were assessed on a scale of 0 to 100 percent disease severity. Percent disease control was calculated using the ratio of disease severity on treated plants relative to untreated plants. Evaluation of Fungicidal Activity: Wheat Brown Rust (Puccinia triticina; Synonym: Puccinia recondite f. sp. tritici; Bayer Code PUCCRT) Wheat plants (variety Yuma) were grown from seed in a greenhouse in 50% mineral soil/50% soil-less Metro mix until the first leaf was fully emerged, with 7-10 seedlings per pot. These plants were inoculated with an aqueous spore suspension of Puccinia triticina either prior to or after fungicide treatments. After inoculation the plants were kept in a dark dew room at 22° C. with 100% relative humidity overnight to permit spores to germinate and infect the leaf. The plants were then transferred to a greenhouse set at 24° C. for disease to develop. Fungicide formulation, application and disease assessment followed the procedures as described in the Example A.

The mark [3] stands for this setting: 24 h, 1 Day Protectant, read-out: SEPTTR disease control, 1DP.
[4] abbreviates: 72 h, 3 Day Curative, read-out: SEPTTR disease control, 3DC.
[5] abbreviates: 24 h, 1 Day Protectant, read-out: PUCCRT disease control, 1DP.
Setting [6] is: 72 h, 3 Day Curative, read-out: PUCCRT disease control, 3DC.

SMILES strings stand for the structures. Read-outs that look alike come from different tables or passages of the source.

For `COc1ccnc(C(=O)N[C@H]2COC[C@H](Cc3ccc(C(F)(F)F)cc3)[C@@H](OC(=O)C(C)C)[C@H](C)OC2=O)c1O` [Compound F30], the pest or weed control at 100 ppm lay within 80 to 100% in test [1] (setting [3]), 0 to 80% in test [1] (setting [4]) and 80 to 100% in test [2] (setting [5]).
With `CCOCC(=O)OCOc1c(OC)ccnc1C(=O)N[C@H]1COC[C@H](CC2CCCC2)[C@@H](OCC(C)C)[C@H](C)OC1=O` [Compound F121], the pest or weed control at 100 ppm in test [1] (setting [3]), in test [1] (setting [4]), in test [2] (setting [5]) and in test [2] (setting [6]) was 80 to 100% in each case. Moreover, the pest or weed control at 121.5 g/ha in test [1] (setting [3]), in test [1] (setting [4]), in test [2] (setting [5]) and in test [2] (setting [6]) was 80 to 100% each time.
